Assay results from ChEMBL document CHEMBL2074395, “NF-kappaB-mediated induction of mdr1b expression by insulin in rat hepatoma cells” (J Biol Chem, 1997).

Target: ATP-dependent translocase ABCB1 (Rattus norvegicus, UniProt P43245)
Test: TP_TRANSPORTER: RNase protection assay in H-4-II-E cells
Assay type: functional, cell-based

Sequence of ATP-dependent translocase ABCB1 (P43245 whole entry): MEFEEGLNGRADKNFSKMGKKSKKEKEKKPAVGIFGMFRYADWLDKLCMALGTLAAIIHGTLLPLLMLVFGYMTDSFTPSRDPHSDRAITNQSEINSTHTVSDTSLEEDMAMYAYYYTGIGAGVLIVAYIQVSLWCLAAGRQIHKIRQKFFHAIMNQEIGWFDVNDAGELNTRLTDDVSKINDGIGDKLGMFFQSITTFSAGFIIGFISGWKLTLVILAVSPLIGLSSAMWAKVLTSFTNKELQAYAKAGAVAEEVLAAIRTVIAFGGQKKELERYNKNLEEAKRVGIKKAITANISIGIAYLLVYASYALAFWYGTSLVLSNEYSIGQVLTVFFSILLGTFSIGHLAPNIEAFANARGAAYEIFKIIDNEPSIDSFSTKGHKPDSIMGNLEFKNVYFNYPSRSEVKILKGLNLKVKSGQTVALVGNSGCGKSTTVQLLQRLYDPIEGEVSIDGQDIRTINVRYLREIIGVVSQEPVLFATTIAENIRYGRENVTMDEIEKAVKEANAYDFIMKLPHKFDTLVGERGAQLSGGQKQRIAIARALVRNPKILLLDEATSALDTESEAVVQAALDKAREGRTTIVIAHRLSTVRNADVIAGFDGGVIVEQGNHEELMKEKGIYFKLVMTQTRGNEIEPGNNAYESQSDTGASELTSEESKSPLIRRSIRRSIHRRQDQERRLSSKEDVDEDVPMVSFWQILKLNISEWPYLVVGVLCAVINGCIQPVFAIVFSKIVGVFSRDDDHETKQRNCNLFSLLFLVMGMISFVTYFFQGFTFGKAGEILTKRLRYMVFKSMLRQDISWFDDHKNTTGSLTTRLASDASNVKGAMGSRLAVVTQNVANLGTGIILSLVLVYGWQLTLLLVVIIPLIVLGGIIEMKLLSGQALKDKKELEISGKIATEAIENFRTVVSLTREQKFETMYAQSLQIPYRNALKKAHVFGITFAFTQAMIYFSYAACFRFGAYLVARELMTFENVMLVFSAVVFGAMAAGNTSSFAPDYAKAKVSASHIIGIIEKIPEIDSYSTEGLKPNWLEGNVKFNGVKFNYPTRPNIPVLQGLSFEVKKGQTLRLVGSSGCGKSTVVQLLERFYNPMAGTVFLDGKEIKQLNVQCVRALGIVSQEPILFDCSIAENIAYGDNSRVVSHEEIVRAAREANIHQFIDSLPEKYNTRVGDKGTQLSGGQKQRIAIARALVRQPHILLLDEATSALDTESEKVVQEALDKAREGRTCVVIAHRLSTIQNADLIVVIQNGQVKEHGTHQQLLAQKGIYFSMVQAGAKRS

## INSULIN HUMAN
  Activity: inducer [+]
